Article PMC6269734, “Synthesis and Pharmacological Activities of Some New Triazolo- and Tetrazolopyrimidine Derivatives” (Molecules, 2013)
Read-outs that look alike come from different tables or passages of the source.

Assays:
[1] = system: carrageenan induced edema; assay: Anti-inflammatory activity, carrageenan induced edema (paw volume, plethysmometer); format: in vivo, mice; details: for inhibition in vivo at 5 mg/kg: Mus musculus, po, dose 5 mg/kg b.m (p.o.), n = 6, read-out: Edema inhibition (Means ± E.M); for anti-inflammatory activity (in words): grading in the structure activity discussion
Description: (§1) Female albino mice (16–18 g) and Sprague Dawley […] (100 g) obtained from the Theodor Bilharz Research Institute (TBRI, Giza city, Egypt) were used. Approval of the institutional animal ethical committee for the animal studies was obtained from the Office of Environmental Health and Radiation Safety, ACUC Protocol 1096-5. The animals were maintained according to accepted standards of animal care.
Newly synthesized thienopyrimidine derivatives were dissolved in 0.5% carboxymethyl cellulose (CMC) as a homogeneous solution and administered […]. One hundred and eight […] were divided into eighteen groups, each group consisting of six animals. Anti-inflammatory activity of the compounds was studied in mice using carrageenan induced edema. A suspension of the tested compound and the reference drug, indomethacin in aqueous solution was administered orally at a dose 5 mg/kg. Control animals were treated with 0.5% CMC only. After 30 min, 0.1 mL of freshly prepared 1.0% carrageenan solution (in formol saline) was injected into the sub-plantar region of the right hind paw according to Hernandez-Perez. The right paw volume was measured using a digital plethysmometer (Model 7150, Ugo Basile, Varese, Italy), directly before and after 1, 2, 3 h, intervals after administration of the tested compounds.

[2] = system: Gastric Ulceration in mice; assay: Ulcerogenic activity (gastric ulceration in mice); format: in vivo; details: oral, 6 h; for mean ulcer lesions ± SEM: n = 6
Description: as §1
Seventy-two mice were divided into twelve groups. Ulcerogenic activity was evaluated after oral administration of the tested compounds or indomethacin at doses of 10, 50, and 100 mg/kg. Control mice received 0.5% CMC. Food but not water was removed 24 h before administration of the tested compounds. After 6 h, the mice were sacrificed; the stomach was removed and opened along the greater curvature, washed with distilled water and cleaned gently by dipping in saline. The mucosa damage for each stomach was examined using a stereoscopic microscope and compared with the reference drug indomethacin according to the reported procedure.

[3] = Acute toxicity (LD50); details: mouse, in vivo, ip; male adult mice, i.p., mortality after 24 h, graphical method
Description: To determine the acute toxicity of the compounds, the LD50 values for compounds 2, 3, 6, 9 and 10 were determined by injecting different gradual increased doses of the tested compounds into male adult mice, then calculating the dose corresponding to 50% animal death (Table 3).
Groups of male adult mice, each of six animals, were injected i.p. with graded doses of each of the test compounds. The percentage of mortality in each group of animals was determined 24 h, after injection. Computation of LD50 was processed by a graphical method.

**Q.** Which inhibition in vivo at 5 mg/kg ([1]; 1 h) does the source give for COc1ccc(-c2nc(NN)c3c4c(sc3n2)CCCCCC4)cc1 [Compound 2, 2-(4-Methoxyphenyl)-4-hydrazinocycloocteno[4.5]thieno[2.3-d]pyrimidine] here?
**A.** 42.3 ± 1.1%

**Q.** What about the inhibition in vivo at 5 mg/kg ([1]; 2 h) of the same compound?
**A.** 49.3 ± 1.1%

**Q.** What about the inhibition in vivo at 5 mg/kg ([1]; 3 h) of the same compound?
**A.** 57.1 ± 1.4%

**Q.** What about the “anti-inflammatory activity (in words)” value [1] of the same compound?
**A.** high

**Q.** And the “number of mice lesions bigger than 0.5 mm in length per total no. of mice” value (“number … per total no. of mice” for short) ([2]; dose 10 mg/kg)?
**A.** 0/6

**Q.** What about the “mean ulcer lesions ± SEM” value ([2]; dose 10 mg/kg) of the same compound?
**A.** 0 mm

**Q.** What about the “number … per total no. of mice” value ([2]; dose 50 mg/kg) of the same compound?
**A.** 0/6

**Q.** What about the “mean ulcer lesions ± SEM” value ([2]; dose 50 mg/kg) of the same compound?
**A.** 0 mm

**Q.** What about the “number … per total no. of mice” value ([2]; dose 100 mg/kg) of the same compound?
**A.** 0/6

**Q.** And the “mean ulcer lesions ± SEM” value ([2]; dose 100 mg/kg)?
**A.** 0 mm

**Q.** What about the LD50 at 24 h [3] of the same compound?
**A.** 2514 ± 12 mg/kg

**Q.** What does the source list for COc1ccc(-c2nc3sc4c(c3c3nnc(CC#N)n23)CCCCCC4)cc1 [Compound 3, 5-(4-Methoxyphenyl)-3-cyanomethylcycloocteno[4.5]thieno[2.3-d]triazolo[1,2,4]-[4,5-a]pyrimidine]?
**A.** inhibition in vivo at 5 mg/kg ([1]; 1 h): 37.2 ± 1.3%; inhibition in vivo at 5 mg/kg ([1]; 2 h): 46.3 ± 1.5%; inhibition in vivo at 5 mg/kg ([1]; 3 h): 54.4 ± 1.1%; anti-inflammatory activity (in words) [1]: high; LD50 at 24 h [3]: 2131 ± 13 mg/kg

**Q.** With COc1ccc(C2=Nc3sc4c(c3C3=NCC(=O)N23)CCCCCC4)cc1 [Compound 4] as the compound, how does the inhibition in vivo at 5 mg/kg ([1]; 1 h) read?
**A.** 16.5 ± 1.3%

**Q.** And the inhibition in vivo at 5 mg/kg ([1]; 2 h)?
**A.** 17.2 ± 1.1%

**Q.** What about the inhibition in vivo at 5 mg/kg ([1]; 3 h) of the same compound?
**A.** 19.3 ± 1.2%

**Q.** What about the “anti-inflammatory activity (in words)” value [1] of the same compound?
**A.** weak

**Q.** With COc1ccc(-c2nc3sc4c(c3c3nc5ccccc5c(=O)n23)CCCCCC4)cc1 [Compound 5, 8-(4-Methoxyphenyl)-6-oxo-cycloocteno[4.5]thino[2,3-d]pyrimidino[4.3-b]quinazoline] as the compound, how does the inhibition in vivo at 5 mg/kg ([1]; 1 h) read?
**A.** 11.7 ± 1.1%

**Q.** What about the inhibition in vivo at 5 mg/kg ([1]; 2 h) of the same compound?
**A.** 13.2 ± 1.2%

**Q.** And the inhibition in vivo at 5 mg/kg ([1]; 3 h)?
**A.** 15.2 ± 1.5%

**Q.** What about the “anti-inflammatory activity (in words)” value [1] of the same compound?
**A.** weak

**Q.** Which results are given for COc1ccc(-c2nc3sc4c(c3c3nnnn23)CCCCCC4)cc1 [Compound 6, 5-(4-Methoxyphenyl)-cycloocteno[4.5]thieno[2.3-d]tetrazolo[4.5-e]pyrimidine]?
**A.** inhibition in vivo at 5 mg/kg ([1]; 1 h): 34.5 ± 1.2%; inhibition in vivo at 5 mg/kg ([1]; 2 h): 42.1 ± 1.3%; inhibition in vivo at 5 mg/kg ([1]; 3 h): 48.2 ± 1.2%; anti-inflammatory activity (in words) [1]: high; LD50 at 24 h [3]: 2047 ± 12 mg/kg

**Q.** With COc1ccc(-c2nc3sc4c(c3c3n[nH]c(=O)c(=O)n23)CCCCCC4)cc1 [Compound 7, 6-(4-Methoxyphenyl)-3,4-dioxo-2H-cycloocteno[4.5]thieno[2,3-d]triazino[1,2.4]-[3,4-a]pyrimidine] as the compound, how does the inhibition in vivo at 5 mg/kg ([1]; 1 h) read?
**A.** 20.8 ± 1.4%

**Q.** What about the inhibition in vivo at 5 mg/kg ([1]; 2 h) of the same compound?
**A.** 22.3 ± 1.3%

**Q.** What about the inhibition in vivo at 5 mg/kg ([1]; 3 h) of the same compound?
**A.** 25.1 ± 1.4%

**Q.** And the “anti-inflammatory activity (in words)” value [1]?
**A.** moderate

**Q.** Which inhibition in vivo at 5 mg/kg ([1]; 1 h) does the source give for COc1ccc(C2=Nc3sc4c(c3C3=NNC(=O)CN23)CCCCCC4)cc1 [Compound 8, 6-(4-Methoxyphenyl)-3-oxo-2,4-dihydrocycloocteno[4,5]thieno[2,3-d]triazino-[1,2,4][3,4-a]pyrimidine] here?
**A.** 21.3 ± 1.2%

**Q.** What about the inhibition in vivo at 5 mg/kg ([1]; 2 h) of the same compound?
**A.** 24.6 ± 1.1%

**Q.** And the inhibition in vivo at 5 mg/kg ([1]; 3 h)?
**A.** 26.5 ± 1.2%

**Q.** What about the “anti-inflammatory activity (in words)” value [1] of the same compound?
**A.** moderate

**Q.** Which results are given for COc1ccc(-c2nc3sc4c(c3c3n[nH]c(=O)n23)CCCCCC4)cc1 [Compound 9, 5-(4-Methoxy)phenyl-3-oxo-2H-cycloocteno[4,5]thieno[2,3-d][1,2,4]triazolo[4,5-a]pyrimidine]?
**A.** inhibition in vivo at 5 mg/kg ([1]; 1 h): 31.2 ± 1.2%; inhibition in vivo at 5 mg/kg ([1]; 2 h): 35.1 ± 1.5%; inhibition in vivo at 5 mg/kg ([1]; 3 h): 40.2 ± 1.6%; anti-inflammatory activity (in words) [1]: high; LD50 at 24 h [3]: 1832 ± 12 mg/kg

**Q.** With COc1ccc(-c2nc3sc4c(c3c3nnc(C)n23)CCCCCC4)cc1 [Compound 10, 5-(4-Methoxyphenyl)-3-methyl-2H-cycloocteno[4,5]thieno[2,3-d][1,2,4]triazolo-[4,5-a] pyrimidine] as the compound, how does the inhibition in vivo at 5 mg/kg ([1]; 1 h) read?
**A.** 39.1 ± 1.5%

**Q.** And the inhibition in vivo at 5 mg/kg ([1]; 2 h)?
**A.** 48.4 ± 1.2%

**Q.** And the inhibition in vivo at 5 mg/kg ([1]; 3 h)?
**A.** 55.6 ± 1.1%

**Q.** What about the “anti-inflammatory activity (in words)” value [1] of the same compound?
**A.** high

**Q.** What about the “number … per total no. of mice” value ([2]; dose 10 mg/kg) of the same compound?
**A.** 0/6

**Q.** And the “mean ulcer lesions ± SEM” value ([2]; dose 10 mg/kg)?
**A.** 0 mm

**Q.** What about the “number … per total no. of mice” value ([2]; dose 50 mg/kg) of the same compound?
**A.** 0/6

**Q.** And the “mean ulcer lesions ± SEM” value ([2]; dose 50 mg/kg)?
**A.** 0 mm

**Q.** And the “number … per total no. of mice” value ([2]; dose 100 mg/kg)?
**A.** 0/6

**Q.** And the “mean ulcer lesions ± SEM” value ([2]; dose 100 mg/kg)?
**A.** 0 mm

**Q.** And the LD50 at 24 h [3]?
**A.** 2341 ± 11 mg/kg

**Q.** For COc1ccc(-c2nc3sc4c(c3c3nnc(Nc5ccccc5)n23)CCCCCC4)cc1 [Compound 12], which inhibition in vivo at 5 mg/kg ([1]; 1 h) is on record?
**A.** 19.4 ± 1.6%

**Q.** And the inhibition in vivo at 5 mg/kg ([1]; 2 h)?
**A.** 21.3 ± 1.3%

**Q.** What about the inhibition in vivo at 5 mg/kg ([1]; 3 h) of the same compound?
**A.** 23.3 ± 1.2%

**Q.** What about the “anti-inflammatory activity (in words)” value [1] of the same compound?
**A.** moderate

**Q.** Which results are given for COc1ccc(-c2nc3sc4c(c3c3nnc(-c5ccccc5)n23)CCCCCC4)cc1 [Compound 14, 5-(4-Methoxyphenyl)-4-phenylcycloocteno[4,5]thieno[2,3-d][1,2,4]triazolo[4,5-c]pyrimidine]?
**A.** inhibition in vivo at 5 mg/kg ([1]; 1 h): 7.3 ± 1.1%; inhibition in vivo at 5 mg/kg ([1]; 3 h): 11.2 ± 1.5%; anti-inflammatory activity (in words) [1]: weak

**Q.** For COc1ccc2c(c1)c(CC(=O)O)c(C)n2C(=O)c1ccc(Cl)cc1 [Indomethacin, reference compound], which inhibition in vivo at 5 mg/kg ([1]; 1 h) is on record?
**A.** 44.7 ± 1.2%

**Q.** What about the inhibition in vivo at 5 mg/kg ([1]; 2 h) of the same compound?
**A.** 52.4 ± 1.2%

**Q.** What about the inhibition in vivo at 5 mg/kg ([1]; 3 h) of the same compound?
**A.** 61.2 ± 1.3%

**Q.** And the “number … per total no. of mice” value ([2]; dose 10 mg/kg)?
**A.** 3/6

**Q.** What about the “mean ulcer lesions ± SEM” value ([2]; dose 10 mg/kg) of the same compound?
**A.** 1.4 ± 0.2 mm

**Q.** What about the “number … per total no. of mice” value ([2]; dose 50 mg/kg) of the same compound?
**A.** 5/6

**Q.** What about the “mean ulcer lesions ± SEM” value ([2]; dose 50 mg/kg) of the same compound?
**A.** 1.9 ± 0.2 mm

**Q.** What about the “number … per total no. of mice” value ([2]; dose 100 mg/kg) of the same compound?
**A.** 6/6

**Q.** And the “mean ulcer lesions ± SEM” value ([2]; dose 100 mg/kg)?
**A.** 2.1 ± 0.2 mm

**Q.** And the LD50 at 24 h [3]?
**A.** 1817 ± 15 mg/kg
